The record followed here is US20220289688A1, “RNA-TARGETING LIGANDS, COMPOSITIONS THEREOF, AND METHODS OF MAKING AND USING THE SAME” (THE UNIVERSITY OF NORTH CAROLINA AT CHAPEL HILL, priority 2019, published 2022).

One series addresses TPP riboswitch RNA. Description: Isothermal titration calorimetry (ITC), ligand titrated into RNA. The series is classed as binding. To be noted: for Kd / Binding affinity relative to a named comparator compound / Kd (μM): ITC; for Binding affinity relative to a named comparator compound: comparator named in value; for Effect of modification on RNA binding affinity (FIG. 5): linked fragments 17 and 31, dissociation constants by ITC. On the technique in general: ITC needs no label: the signal is the heat of the interaction.

The nature of series [1]: Solubility at concentrations required for ITC. Format: physicochemical. The conditions noted are these: ITC buffer. On the procedure: (§1) ITC experiments were performed using a Microcal PEAQ-ITC automated instrument (Malvern Analytical) under RNase-free conditions^41. In vitro transcribed RNA was exchanged into folding buffer containing 100 mM CHES, pH 8.0, 200 mM potassium acetate, and 3 mM MgCl2 using centrifugal concentration (Amicon Ultra centrifugal filters, 10K MWCO, Millipore-Sigma). Ligands were dissolved into the same buffer (to minimize heat of mixing upon addition of ligand to RNA) at a concentration 10-20 times the desired experimental concentration of RNA. RNA concentration was quantified (Nanodrop UV-VIS spectrometer; ThermoFisher Scientific), diluted to 1-10 times the expected […] in buffer, and the diluted RNA was re-quantified to confirm the final experimental RNA concentration. The RNA, diluted in folding buffer, was heated at 65° C. for 5 minutes, placed on ice for 5 minutes, and allowed to fold at 37° C. for 15 minutes. if needed, the primary binding ligand (for example, 2) was pre-bound to the RNA by adding 0.1 volume at 10 times the desired final concentration of the bound ligand, followed by incubation at room temperature for 10 minutes.

Series [2] deals with TPP riboswitch region of the screening construct. Description: SHAPE second-fragment screen of RNA construct pre-bound to primary fragment. Format: binding. To be noted: RNA pre-bound to 2 or S12; fragment 1 mM. On the procedure: For the first-fragment-ligand screen, 5 pmol of RNA per well were diluted to […] in RNase-free water on a 4° C. cooling block. The plate was heated at 95° C. for 2 minutes, immediately followed by snap cooling at 4° C. for 5 minutes. To each well was added 19.6 μL of 2× folding buffer (final concentrations 50 mM HEPES pH 8.0, 200 mM potassium acetate, and 10 mM MgCl2), and plates were incubated at 37° C. for 30 minutes. […] To combine the target RNA with fragment, 24.3 μL of RNA solution or RNA plus primary binding fragment were added to wells containing 2.7 μL of 10× screening fragments (in DMSO to yield a final fragment concentration of 1 mM). Solutions were mixed thoroughly by pipetting and incubated for 10 minutes at 37° C. […]
Once screening of test fragments is complete, statistical tests are carried out to identify differences in modification rates of a given nucleotide. […] That is, if m1 modifications of a tested nucleotide were counted among n1 reads in sample 1 and m2 modifications were counted among n2 reads in sample 2, the tested null hypothesis predicts that among all the counted modifications (m1+m2), the proportion of modifications in sample 1 will be p1=n1/(n1+n2). […]

The next series deals with 2-TPP RNA complex. As to the kind of experiment: ITC with primary binding fragment pre-bound to the RNA. To be noted: for Binding cooperativity with 2: ITC in presence and absence of pre-bound 2; for Kd: ITC. The procedure:
as §1
Each ITC experiment involved two runs: one in which the ligand was titrated into RNA (the experimental trace) and one in which the same ligand was titrated into buffer (the control trace). ITC experiments were performed using the following parameters: 25° C. cell temperature, 8 μCal/sec reference power, 750 RPM stirring speed, high feedback mode, 0.2 μL initial injection, followed by 19 injections of 2 μL. Each injection required 4 seconds to complete, and there was a 180-second spacing between injections.
ITC data was analyzed using MicroCal PEAQ-ITC Analysis Software (Malvern Analytical). First, the baseline for each injection peak was manually adjusted to resolve any incorrectly selected injection endpoints. Second, the control trace was subtracted from the experimental trace by point-to-point subtraction. Third, a least-squares regression line was fit to the data using the Levenberg-Marquardt algorithm. In the case of weakly binding ligands (>500 μM), N was manually set to 1.0 to enable fitting of low c-value curves.

[3] abbreviates: no ligand pre-bound, Table 6, read-out: Kd (mM) No ligand bound.
[4] abbreviates: fragment 5 analogs, pendant groups, Table 4, read-out: Kd.
[5] abbreviates: fragment 5 analogs, pendant groups, Table 4.
Where [6] appears, read: fragment 2 analogs, pendant groups, Table 2B, read-out: Kd.
Where [7] appears, read: primary-screen hits, Table 1, value ± error, read-out: Kd.
Setting [8] is: primary fragment pre-bound to TPP riboswitch RNA, Table 6, read-out: Kd (mM) 5 pre-bound.

Values joined by “and” are separate entries in the source; they are usually repeats but may differ in a detail not shown here. Equal values may be shown once. “Also recorded” adds a separate entry of the source. Read-outs that look alike come from different tables or passages of the source.

Regarding `Nc1cnccc1N1CCNCC1` [Compound 34], the Kd (usually the concentration at which binding is half-saturated) at TPP riboswitch RNA (setting [3]) was over 10000 µM.

For the molecule `O=C(CCNc1ccc2nccnc2c1)NO` [Compound 36], in the series on TPP riboswitch RNA, the “Binding affinity relative to a named comparator compound” value is “fivefold higher binding affinity than the amide-linked version; also recorded: affinity similar to that of the parent fragment 17” and the “Effect of modification on RNA binding affinity (FIG. 5)” value (shortened to “Effect of modification”) is “increase RNA binding affinity”.

In the case of `COC(=O)c1ccc(N)cc1` [compound 88], the Kd at TPP riboswitch RNA (setting [4]) is 1100 µM.

On to `OCc1ccc(Cl)cc1` [compound 814], for which the dissociation constant (Kd) at TPP riboswitch RNA (setting [4]) worked out at 1300 µM.

As for `O=C1CC(C(F)(F)F)=NN1` [Compound 7], the “Solubility at concentrations required for ITC” value (“Solubility” below) in series [1] is given as “insoluble”.

With `COC(=O)c1ccc(Cl)c(Cl)c1` [compound 811], at TPP riboswitch RNA (setting [4]), the Kd was found to be 820 µM.

In the case of `CN(C)C(=O)c1ccc(Cl)cc1` [compound 818], on TPP riboswitch RNA (setting [5]), the “Kd (μM)” value is “no binding”.

For the molecule `COC(=O)c1ccc(C(F)(F)F)cc1` [compound 89], the “Kd (μM)” value at TPP riboswitch RNA (setting [5]) is “no binding”.

Consider `OCc1ccc2nccnc2c1` [Compound 15], for which, on TPP riboswitch RNA (setting [6]), the Kd came out at 18 µM.

For `COC(=O)c1ccc(Oc2ccccc2)cc1` [compound 810], the “Kd (μM)” value on TPP riboswitch RNA (setting [5]) was “no binding”.

Consider `NS(=O)(=O)c1ccc(Cl)cc1` [compound 816], for which, at TPP riboswitch RNA (setting [4]), the dissociation constant Kd worked out at 1300 µM.

With `c1cc2[nH]cnc2cn1` [Compound 6], the Kd on TPP riboswitch RNA (fragment 5 analogs, pyridine core modifications, Table 3, read-out: Kd) came to 266 µM; on TPP riboswitch RNA (setting [7]) it was 650 ± 100 µM.

For the molecule `O=C(O)c1csc2ccc(Cl)cc12` [Compound 29], in series [2], the “SHAPE result of second-round screen” value was “caused changes in other areas of the RNA consistent with nonspecific interactions”.

For the molecule `NCCCN1CCN(c2ccncc2)CC1` [Compound 33], the Kd on TPP riboswitch RNA (setting [3]) is over 10000 µM.

As for `NC(=O)c1cnc2ccccc2n1` [Compound 25], the Kd on TPP riboswitch RNA (setting [6]) worked out at 600 µM.

As for `COC(=O)c1ccc(Br)cc1` [compound 85], the dissociation constant (Kd) on TPP riboswitch RNA (setting [4]) came to 440 µM.

For `NCc1ccc(-c2csnn2)cc1` [Compound 4], the Kd at TPP riboswitch RNA (setting [7]) is 220 ± 10 µM.

In the case of `Cc1ncc(C[n+]2csc(CCOP(=O)([O-])OP(=O)(O)O)c2C)c(N)n1` [Compound 9, thiamine pyrophosphate, reference compound], the Kd on TPP riboswitch RNA (setting [7]) came out at 0.029 ± 0.002 µM.

Regarding `COC(=O)c1ccc(Cl)cc1Cl` [compound 812], in the series on TPP riboswitch RNA, the “Binding affinity relative to a named comparator compound” value is on record as “approximately threefold higher affinity for the TPP riboswitch than did fragment 5”. In addition, on TPP riboswitch RNA (setting [4]), the Kd is 93 µM.

In the case of `c1cc(N2CCCCC2)c(NCc2ccc3nccnc3c2)cn1` [Compound 37], at TPP riboswitch RNA (read-out: Kd (affinity)), the Kd was found to be 0.625 µM. In the series with TPP riboswitch RNA, the “Effect of modification” value is recorded as “increase RNA binding affinity”.

On to `COC(=O)c1ccc(Cl)nc1` [Compound 5], for which, on TPP riboswitch RNA (setting [7]), the Kd came out at 265 ± 80 µM.

As for `C#Cc1ccc2nccnc2c1` [Compound 1], on TPP riboswitch RNA (setting [7]), the Kd is 11 ± 0.2 µM.

Regarding `O=C(O)c1cncc(-c2cccs2)c1` [Compound 8], the “Solubility” value in series [1] is on record as “insoluble”.

With `NC(=O)c1ccc(Cl)cc1` [compound 815], the Kd at TPP riboswitch RNA (setting [4]) is 1800 µM.

With `COC(=O)c1ccc2nccnc2c1` [Compound 19], the Kd is 58 µM on TPP riboswitch RNA (setting [6]) and 5 µM on TPP riboswitch RNA (read-out: Kd).

Turning to `O=C(CCC(=O)Nc1ccc2nccnc2c1)NO` [Compound 35], the “Effect of modification” value with TPP riboswitch RNA is “negative modification”.

On to `c1cc(N2CCNCC2)ccn1` [Compound 31], for which the Kd at TPP riboswitch RNA (fragment alone, read-out: Kd) is 10000 µM and ≥ 10000 µM; at TPP riboswitch RNA (setting [3]) it was over 10000 µM; on 2-TPP RNA complex (2 pre-bound to the TPP riboswitch RNA, read-out: Kd) it was about 3 mM; at 2-TPP RNA complex (setting [8]), 3 mM. Further, the “Binding cooperativity with 2” value with 2-TPP RNA complex is “clear, but modest, binding cooperativity with 2”.

Consider `Nc1cnc2ccccc2n1` [Compound 24], for which, on TPP riboswitch RNA (setting [6]), the Kd was 379 µM.

In the case of `CCOC(=O)c1ccc(Cl)cc1` [compound 813], the Kd on TPP riboswitch RNA (setting [4]) amounted to 600 µM.

With `COc1ccc2nsnc2c1` [Compound 3], at TPP riboswitch RNA (setting [7]), the Kd was 95 ± 3 µM.

In the case of `Cc1ccc2nccnc2c1` [Compound 20], at TPP riboswitch RNA (setting [6]), the Kd amounted to 33 µM.

Take `c1cc(N2CCNCC2)c(CNCc2ccc3nccnc3c2)cn1` [Compound 39]: in the series on TPP riboswitch RNA, the “Binding affinity relative to a named comparator compound” value is listed as “reduces affinity relative to compound 37” and the “Effect of modification” value is “negative modification”.

As for `O=Cc1ccc2nccnc2c1` [Compound 18], the Kd on TPP riboswitch RNA (setting [6]) came to 35 µM.

Regarding `CCOc1ccc(C(=O)OC)cc1` [compound 87], the Kd at TPP riboswitch RNA (setting [4]) came out at 1800 µM.

On to `Nc1cccc2nccnc12` [Compound 21], for which the equilibrium dissociation constant (Kd) at TPP riboswitch RNA (setting [6]) amounted to 75 µM.

Consider `Cc1cc(N2CCNCC2)c2ccccc2n1` [Compound 28], for which, in series [1], the “Solubility” value was “insoluble”.

In the case of `COC(=O)c1ccc([N+](=O)[O-])cc1` [compound 86], the Kd at TPP riboswitch RNA (setting [4]) amounted to 390 µM.

Take `Nc1ccc2nccnc2c1` [Compound 2]: the Kd amounted to 25 µM at TPP riboswitch RNA (fragment 2 analogs, quinoxaline core modifications, Table 2A, read-out: Kd); 25 ± 6 µM at TPP riboswitch RNA (setting [7]); 25 µM at TPP riboswitch RNA (read-out: Kd).

Turning to `Cc1cnccc1N1CCNCC1` [Compound 32], the figures for the dissociation constant Kd on TPP riboswitch RNA (setting [3]) and on 2-TPP RNA complex (setting [8]) were over 10000 µM and 4 mM, respectively. Further, the “Binding cooperativity with 2” value in the series on 2-TPP RNA complex is “clear, but modest, binding cooperativity with 2”.

As for `Fc1cccc2nccnc12` [Compound 23], on TPP riboswitch RNA (setting [6]), the dissociation constant (Kd) amounted to 220 µM.

Take `CCS(=O)(=O)c1ccc(Cl)cc1` [compound 817]: on TPP riboswitch RNA (setting [5]), the “Kd (μM)” value is “no binding”.

As for `c1cnc2cc(CNc3cncc(N4CCNCC4)c3)ccc2n1` [Compound 40], in the series on TPP riboswitch RNA, the “Binding affinity relative to a named comparator compound” value is listed as “reduces affinity relative to compound 37” and the “Effect of modification” value is listed as “negative modification”.

With `CN(C)CCNCc1ccc2nccnc2c1` [Compound 38], in the series on TPP riboswitch RNA, the “Binding affinity relative to a named comparator compound” value was “reduced affinity relative to compound 37” and the “Effect of modification” value is on record as “neutral modifications”.
